Test results: patent US7981886B2, “Antibiotics derivatives” (Actelion Pharmaceutical Ltd., priority 2005, dated 2011)
≈ marks a conversion by molar mass, not a printed value.

Legend:
Type in all cases: cell-based
E. coli 25922 = test: MIC by microdilution (NCCLS), E. coli 25922; conditions: Escherichia coli, cation-adjusted Mueller-Hinton Broth, pH 7.2-7.3
Method: (§1) These assays have been performed following the description given in “Methods for dilution Antimicrobial Susceptibility Tests for Bacteria that Grow Aerobically, 4th ed.; Approved standard: NCCLS Document M7-A4; National Committee for Clinical Laboratory Standards Villanova, Pa., USA, 1997”. Minimal inhibitory concentrations (MICs; mg/l) were determined in cation-adjusted Mueller-Hinton Broth (BBL) by a microdilution method following NCCLS guidelines (National Committee for Clinical Laboratory Standards. Methods for Dilution Antimicrobial Susceptibility). The pH of the test medium was 7.2-7.3.
(§2) All Examples were tested against several Gram positive and Gram negative bacteria.

P. aeruginosa 27853 = test: MIC by microdilution (NCCLS), P. aeruginosa 27853; conditions: Pseudomonas aeruginosa, cation-adjusted Mueller-Hinton Broth, pH 7.2-7.3
Method: as §1, §2

H influenzae A921 = test: MIC by microdilution (NCCLS), H influenzae A921; conditions: cation-adjusted Mueller-Hinton Broth, pH 7.2-7.3
Method: as §1, §2

S. aureus A798 = test: MIC by microdilution (NCCLS), S. aureus A798; conditions: Staphylococcus aureus, cation-adjusted Mueller-Hinton Broth, pH 7.2-7.3
Method: as §1, §2

S. aureus 29213 = test: MIC by microdilution (NCCLS), S. aureus 29213; conditions: Staphylococcus aureus, cation-adjusted Mueller-Hinton Broth, pH 7.2-7.3
Method: as §1, §2

E. faecalis 29212 = test: MIC by microdilution (NCCLS), E. faecalis 29212; conditions: Enterococcus faecalis, cation-adjusted Mueller-Hinton Broth, pH 7.2-7.3
Method: as §1, §2

M. catarrhalis A894 = test: MIC by microdilution (NCCLS), M. catarrhalis A894; conditions: Moraxella catarrhalis, cation-adjusted Mueller-Hinton Broth, pH 7.2-7.3
Method: as §1, §2

E. faecium A949 = test: MIC by microdilution (NCCLS), E. faecium A949; conditions: Enterococcus faecium, cation-adjusted Mueller-Hinton Broth, pH 7.2-7.3
Method: as §1, §2

S. pneumoniae 49619 = test: MIC by microdilution (NCCLS), S. pneumoniae 49619; conditions: Streptococcus pneumoniae, cation-adjusted Mueller-Hinton Broth, pH 7.2-7.3
Method: as §1, §2

Structure (SMILES)	MIC (E. coli 25922) [µg/mL]	MIC (P. aeruginosa 27853) [µg/mL]	MIC (H influenzae A921) [µg/mL]	MIC (S. aureus A798) [µg/mL]	MIC (S. aureus 29213) [µg/mL]	MIC (E. faecalis 29212) [µg/mL]	MIC (M. catarrhalis A894) [µg/mL]	MIC (E. faecium A949) [µg/mL]	MIC (S. pneumoniae 49619) [µg/mL]
COc1cccc2sc(C(=O)C3CCN(CC(=O)c4ccc5c(c4)NC(=O)CO5)CC3)nc12 [Example 34, 6-{2-[4-(4-methoxy-benzothiazole-2-carbonyl)-piperidin-1-yl]-acetyl}-4H-benzo[1,4]oxazin-3-one]	16 (≈ 34.4 µM)	> 16	2 (≈ 4.3 µM)	2 (≈ 4.3 µM)	1 (≈ 2.15 µM)	16 (≈ 34.4 µM)	0.25 (≈ 0.537 µM)	4 (≈ 8.59 µM)	16 (≈ 34.4 µM)
COc1cccc2sc(C(=O)[C@@H]3CC[C@@H](NCc4ccc5c(n4)NC(=O)CS5)CO3)nc12 [Example 29, (3R,6S)-6-{[6-(4-methoxy-benzothiazole-2-carbonyl)-tetrahydro-pyran-3-ylamino]-methyl}-4H-pyrido[3,2-b][1,4]thiazin-3-one]	16 (≈ 34 µM)	> 16	2 (≈ 4.25 µM)	2 (≈ 4.25 µM)	1 (≈ 2.13 µM)	2 (≈ 4.25 µM)	0.125 (≈ 0.266 µM)	1 (≈ 2.13 µM)	4 (≈ 8.5 µM)
COc1cccc2sc(O[C@H]3CC[C@H](NCc4ccc5c(c4)NC(=O)CS5)CC3)nc12 [Example 28, 6-{[trans-4-(4-methoxy-benzothiazol-2-yloxy)-cyclohexylamino]-methyl}-4H-benzo[1,4]thiazin-3-one]	16 (≈ 35.1 µM)	> 16	16 (≈ 35.1 µM)	1 (≈ 2.19 µM)	8 (≈ 17.6 µM)	16 (≈ 35.1 µM)	0.125 (≈ 0.274 µM)	16 (≈ 35.1 µM)	16 (≈ 35.1 µM)
Cc1cccc2sc(C(=O)[C@H]3CC[C@H](NCc4ccc5c(c4)NC(=O)CS5)CC3)nc12 [Example 4, 6-{[trans-4-(4-methyl-benzothiazole-2-carbonyl)-cyclohexylamino]-methyl}-4H-benzo[1,4]thiazin-3-one]	1 (≈ 2.21 µM)	4 (≈ 8.86 µM)	0.25 (≈ 0.554 µM)	0.063 (≈ 0.139 µM)	0.125 (≈ 0.277 µM)	0.5 (≈ 1.11 µM)	≤ 0.031	0.25 (≈ 0.554 µM)	1 (≈ 2.21 µM)
COc1cccc2sc(C(=O)[C@H]3CC[C@H](NCc4ccc5c(n4)NC(=O)CS5)CC3)nc12 [Example 23, 6-{[trans-4-(4-methoxy-benzothiazole-2-carbonyl)-cyclohexylamino]-methyl}-4H-pyrido[3,2-b][1,4]thiazin-3-one]	16 (≈ 34.1 µM)	> 16	8 (≈ 17.1 µM)	0.5 (≈ 1.07 µM)	1 (≈ 2.13 µM)	8 (≈ 17.1 µM)	0.25 (≈ 0.533 µM)	8 (≈ 17.1 µM)	4 (≈ 8.54 µM)
O=C1CSc2ccc(CNC3CCC(C(=O)c4nc5ccccc5s4)CC3)cc2N1 (stereo not drawn) [Example 1, 6-{[4-(benzothiazole-2-carbonyl)-cyclohexylamino]-methyl}-4H-benzo[1,4]thiazin-3-one]	0.5 (≈ 1.14 µM)	16 (≈ 36.6 µM)	0.063 (≈ 0.144 µM)	0.125 (≈ 0.286 µM)	0.25 (≈ 0.571 µM)	0.5 (≈ 1.14 µM)	≤ 0.031	1 (≈ 2.29 µM)	2 (≈ 4.57 µM)
